Assay results as given in ChEMBL document CHEMBL4483862, “Open-source discovery of chemical leads for next-generation chemoprotective antimalarials” (2018).

Tested on: Plasmodium berghei
Experiment: Luciferase/luciferin-expressing antifolate-resistant parasites were used to infect a culture of HepG2 cells that were pre-incubated with compounds. Infected hepatocytes emit light due to the luciferase reaction. Assay results are presented as the percent inhibition of light emission compared to control. […]
Type: functional
Conditions: sporozoite; for IC90: read-out: LUCIFERASE INFECTION ASSAY - IC90
[1] = PBLUC_HILL_SLOPE 2.05, PBLUC_R_SQUARED 0.76, read-out: LUCIFERASE INFECTION ASSAY - IC50

| Structure (SMILES) | IC90 [µM] | further results |
| --- | --- | --- |
| CN(c1ccccc1)S(=O)(=O)c1ccc(NC(=O)c2cccs2)cc1 | 8.27 | IC50 (PBLUC_HILL_SLOPE 1.98, PBLUC_R_SQUARED 0.132, read-out: LUCIFERASE INFECTION ASSAY - IC50): 2.73 µM |
| CN(C)c1cccc(-c2cnc3cnc(-c4ccncc4)cn23)c1 | > 10.5 | IC50 (PBLUC_HILL_SLOPE 2.07, PBLUC_R_SQUARED 0.374, read-out: LUCIFERASE INFECTION ASSAY - IC50): 6.53 µM |
| Fc1ccc(/C=N/n2c(-c3ccc(Cl)cc3)cs/c2=N\CC2CCCO2)cc1 (configuration not stated) | > 10 | IC50 (PBLUC_HILL_SLOPE 2, PBLUC_R_SQUARED 0.363, read-out: LUCIFERASE INFECTION ASSAY - IC50): 5.58 µM |
| Cc1noc(C)c1S(=O)(=O)N1CCCN(C(=O)c2cc3c(s2)-c2ccccc2CC3)CC1 | > 10 | IC50 (PBLUC_HILL_SLOPE 2.04, PBLUC_R_SQUARED 0.622, read-out: LUCIFERASE INFECTION ASSAY - IC50): 4.56 µM |
| Cc1ccc(-c2cnn3c(NCCN(C)C)cc(C)nc23)cc1 | 10.6 | IC50 (PBLUC_HILL_SLOPE 1.98, PBLUC_R_SQUARED 0.569, read-out: LUCIFERASE INFECTION ASSAY - IC50): 3.5 µM |
| CN(C)Cc1ccc(-c2ccccc2CNC(=O)CC2CC3CCC2C3)cc1 (configuration not stated) | > 10 | IC50 (PBLUC_HILL_SLOPE 2, PBLUC_R_SQUARED 0.172, read-out: LUCIFERASE INFECTION ASSAY - IC50): > 10 µM |
| Cc1cc(NC(=O)N2CCN(Cc3cccc4ccccc34)CC2)no1 | > 10 | IC50 (PBLUC_HILL_SLOPE 2.02, PBLUC_R_SQUARED 0.015, read-out: LUCIFERASE INFECTION ASSAY - IC50): > 10 µM |
| Cc1ccc(NC2c3ccccc3-c3ccccc32)cc1 | > 10 | IC50 (PBLUC_HILL_SLOPE 2, PBLUC_R_SQUARED 0.71, read-out: LUCIFERASE INFECTION ASSAY - IC50): 6.95 µM |
| Cc1cc(C)cc(NC(=O)c2cc(C(C)(C)C)n(-c3ccccc3)c2C)c1 | 5.09 | IC50 [1]: 1.74 µM |
| Cc1c(C(=O)Nc2nc3c(C)cccc3s2)[nH]c2c1C(=O)CCC2 | > 10 | IC50 (PBLUC_HILL_SLOPE 2.07, PBLUC_R_SQUARED 0.0587, read-out: LUCIFERASE INFECTION ASSAY - IC50): 5.05 µM |
| Cc1ccc(-c2cnn3c(N4CCCC4)cc(C)nc23)cc1 | 9.26 | IC50 (PBLUC_HILL_SLOPE 2.02, PBLUC_R_SQUARED 0.442, read-out: LUCIFERASE INFECTION ASSAY - IC50): 3.13 µM |
| COc1ccc(-c2nc3cnc(Nc4cccc(OC(F)(F)F)c4)cc3n2C)cc1OC | > 10 | IC50 (PBLUC_HILL_SLOPE 2.08, PBLUC_R_SQUARED 0.244, read-out: LUCIFERASE INFECTION ASSAY - IC50): > 10 µM |
| CC(C)c1ccc(/C=C2\CCn3c2nc(=O)c2ccccc23)cc1 | > 10.4 | IC50 (PBLUC_HILL_SLOPE 2.01, PBLUC_R_SQUARED 0.333, read-out: LUCIFERASE INFECTION ASSAY - IC50): 4.19 µM |
| Clc1sc2ccccc2c1-c1nnc(SCc2nc3ccccn3c2Br)n1-c1ccccc1 | > 10 | IC50 (PBLUC_HILL_SLOPE 2.01, PBLUC_R_SQUARED 0.722, read-out: LUCIFERASE INFECTION ASSAY - IC50): 6.1 µM |
| O=C(CN1CCN(S(=O)(=O)c2cccs2)CC1)Nc1ccccc1C(=O)c1ccccc1 | > 10 | IC50 (PBLUC_HILL_SLOPE 1.98, PBLUC_R_SQUARED 0.361, read-out: LUCIFERASE INFECTION ASSAY - IC50): 5.33 µM |
| CCC(=O)Nc1c(-c2nc3ccccc3[nH]2)c(C)c(C)n1C1CCCC1 | > 9.42 | IC50 (PBLUC_HILL_SLOPE 2, PBLUC_R_SQUARED 0.418, read-out: LUCIFERASE INFECTION ASSAY - IC50): 6.01 µM |
| c1cc2[nH]c(-c3ccsc3)cc2c(Nc2ccc(N3CCOCC3)cc2)n1 | > 10 | IC50 (PBLUC_HILL_SLOPE 2.04, PBLUC_R_SQUARED 0.351, read-out: LUCIFERASE INFECTION ASSAY - IC50): 6.37 µM |
| Cc1ccc(NC(=O)Cn2ccccc2=O)cc1S(=O)(=O)N1CCCCC1 | > 10 | IC50 (PBLUC_HILL_SLOPE 1.99, PBLUC_R_SQUARED 0.304, read-out: LUCIFERASE INFECTION ASSAY - IC50): 5.37 µM |
| CN(C)c1cccc(-c2cnc3cnc(-c4cccc(C(=O)NCCO)c4)cn23)c1 | > 8.22 | IC50 (PBLUC_HILL_SLOPE 1.98, PBLUC_R_SQUARED 0.622, read-out: LUCIFERASE INFECTION ASSAY - IC50): 5.11 µM |
| CC1CCCCN1CCCNC(=S)Nc1cc(C(F)(F)F)cc(C(F)(F)F)c1 (configuration not stated) | > 7.72 | IC50 (PBLUC_HILL_SLOPE 2.02, PBLUC_R_SQUARED 0.36, read-out: LUCIFERASE INFECTION ASSAY - IC50): 3.73 µM |
| Cc1cc(/C=N/Nc2nncc3ccccc23)c(C)n1-c1ccc(I)cc1 | > 10 | IC50 (PBLUC_HILL_SLOPE 2.06, PBLUC_R_SQUARED 0.597, read-out: LUCIFERASE INFECTION ASSAY - IC50): 6.98 µM |

| Structure (SMILES) | IC90 [µM] | further results |
| --- | --- | --- |
| O=C(Nc1ncccc1O)c1ccc(-n2ccnc2)cc1 | 8.71 | IC50 (PBLUC_HILL_SLOPE 2.04, 2.50, 2.35, PBLUC_R_SQUARED 0.554, 0.491, 0.399, read-out: LUCIFERASE INFECTION ASSAY - IC50): 3.31 µM |
| CC(=O)c1c(C)[nH]c(C(=O)OCC(=O)Nc2c(C)nn(-c3ccccc3)c2C)c1C | > 10 | IC50 (PBLUC_HILL_SLOPE 2.08, PBLUC_R_SQUARED 0.0451, read-out: LUCIFERASE INFECTION ASSAY - IC50): > 10 µM |
| CCc1c(C)sc2[nH]c(-c3ccc(C(=O)N4CCN(S(=O)(=O)c5c(Cl)cccc5Cl)CC4)cc3)nc(=O)c12 | 4.36 | IC50 [1]: 1.49 µM |
| CC(C)N1CCN(c2ccc(-c3cn4c(-c5ccccc5)cnc4cn3)cc2)CC1 | > 8.3 | IC50 (PBLUC_HILL_SLOPE 2.04, PBLUC_R_SQUARED 0.328, read-out: LUCIFERASE INFECTION ASSAY - IC50): 5.96 µM |
| Cc1occc1C(=O)NNC(=O)c1csc(-c2ccc(C(C)C)cc2)n1 | > 10 | IC50 (PBLUC_HILL_SLOPE 2.06, PBLUC_R_SQUARED 0.34, read-out: LUCIFERASE INFECTION ASSAY - IC50): 8.1 µM |
| COCCNc1ccc(C(=O)NCCN2CCN(c3cccc(C)c3)CC2)cc1[N+](=O)[O-] | > 10 | IC50 (PBLUC_HILL_SLOPE 2.05, PBLUC_R_SQUARED 0.556, read-out: LUCIFERASE INFECTION ASSAY - IC50): 6.29 µM |
| CCn1c2ccccc2c2cc(NC(=O)CN3CCN(Cc4ccc5c(c4)OCO5)CC3)ccc21 | > 10 | IC50 (PBLUC_HILL_SLOPE 2.07, PBLUC_R_SQUARED 0.0912, read-out: LUCIFERASE INFECTION ASSAY - IC50): 8.08 µM |
| CN1CCN(c2ccccc2/C=N\Nc2cc(Cl)ccc2Cl)CC1 | > 9.08 | IC50 (PBLUC_HILL_SLOPE 2.04, PBLUC_R_SQUARED 0.6, read-out: LUCIFERASE INFECTION ASSAY - IC50): 3.92 µM |
| CSc1nc2c3c(sc2c2nnc(SCCN(C)C)n12)CCCC3 | > 8.69 | IC50 (PBLUC_HILL_SLOPE 2.05, PBLUC_R_SQUARED 0.263, read-out: LUCIFERASE INFECTION ASSAY - IC50): 5.45 µM |
| O=S(=O)(CCN1CCC(C(c2ccccc2)c2ccccc2)CC1)c1ccc(F)cc1 | 5.93 | IC50 (PBLUC_HILL_SLOPE 2.04, PBLUC_R_SQUARED 0.498, read-out: LUCIFERASE INFECTION ASSAY - IC50): 2.02 µM |
| N#CC(C(=O)COC(=O)c1cc(Br)ccc1O)=C1Nc2ccccc2N1 | > 10 | IC50 (PBLUC_HILL_SLOPE 2.06, PBLUC_R_SQUARED 0.487, read-out: LUCIFERASE INFECTION ASSAY - IC50): 6.23 µM |
| O=C(Nc1cccc(-c2nc(-c3cccc(F)c3)cs2)c1)C1CC1 | > 10 | IC50 (PBLUC_HILL_SLOPE 2.07, PBLUC_R_SQUARED 0.228, read-out: LUCIFERASE INFECTION ASSAY - IC50): 5.44 µM |
| CSc1cccc(N2C(=O)C=C(C)C2=O)c1 | > 14.1 | IC50 (PBLUC_HILL_SLOPE 2.08, PBLUC_R_SQUARED 0.24, read-out: LUCIFERASE INFECTION ASSAY - IC50): 13.4 µM |
| CCN(CC)S(=O)(=O)c1cccc(C(=O)N/N=C(\C)c2cc(Cl)ccc2Cl)c1 | > 10 | IC50 (PBLUC_HILL_SLOPE 2.08, PBLUC_R_SQUARED 0.0166, read-out: LUCIFERASE INFECTION ASSAY - IC50): 7.74 µM |
| CC(C)NC(=O)N1CCCC(C(=O)Nc2nc3c(ccc4ccccc43)s2)C1 (configuration not stated) | > 10 | IC50 (PBLUC_HILL_SLOPE 2.07, PBLUC_R_SQUARED 0.824, read-out: LUCIFERASE INFECTION ASSAY - IC50): 4.39 µM |
| CN1CCN(c2ccc(-c3cn4c(-c5cccc(Cl)c5)cnc4cn3)cn2)CC1 | > 8.15 | IC50 (PBLUC_HILL_SLOPE 1.98, PBLUC_R_SQUARED 0.725, read-out: LUCIFERASE INFECTION ASSAY - IC50): 5.39 µM |
| CC(C)(C)c1cc(C(=O)Nc2cc(-c3cccs3)nn2-c2ccc(I)cc2)n(Cc2ccccc2)n1 | > 5.43 | IC50 (PBLUC_HILL_SLOPE 1.99, PBLUC_R_SQUARED 0.0392, read-out: LUCIFERASE INFECTION ASSAY - IC50): 4.11 µM |
| CN(Cc1nc(N)c2c3c(sc2n1)CCCC3)Cc1cccs1 | > 10 | IC50 (PBLUC_HILL_SLOPE 2.01, PBLUC_R_SQUARED 0.418, read-out: LUCIFERASE INFECTION ASSAY - IC50): 4.1 µM |
| O=C(NCCSCc1c(F)cccc1Cl)c1cccs1 | > 10 | IC50 (PBLUC_HILL_SLOPE 2.01, PBLUC_R_SQUARED 0.48, read-out: LUCIFERASE INFECTION ASSAY - IC50): 3.94 µM |
| COc1cccc(C2CNC(c3ccc(Cl)cc3)c3[nH]c4ccccc4c32)c1OC (configuration not stated) | 5.44 | IC50 (PBLUC_HILL_SLOPE 2.02, PBLUC_R_SQUARED 0.709, read-out: LUCIFERASE INFECTION ASSAY - IC50): 1.84 µM |
